Laboratory results reported in the supplement of paper PMC5908809.

Columns and labels:
[1] = system: normal NK cells expanded with K562-aAPC; test: drug sensitivity score (DSS) (DSS units); higher = more sensitive; extreme values may be limits of the assay; conditions: 72 h; IL-2 2.5 ng/mL
Method: (§1)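 Drug sensitivity and resistance testing on K562-aAPC-expanded normal NK cells: 5 concentrations (10-fold steps over a 10,000-fold range), 72 h at 37 °C, viability by CellTiter-Glo normalised to DMSO and benzethonium chloride controls; DSS from the fitted curve.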

[2] = system: normal NK cells expanded with K562-aAPC; test: percent inhibition of viability; higher = more inhibition; conditions: 72 h, IL-2 2.5 ng/mL
Method: as §1

[3] = system: normal primary NK cells, pool 2 (3 donors) (IL-2 2.5 ng/mL); test: drug sensitivity score (DSS) (DSS units); higher = more sensitive; extreme values may be limits of the assay; conditions: 72 h
NKL (IL-2 2.5 ng/mL) [4] = test: as above; conditions: 72 h
NK-92 (IL-2 2.5 ng/mL) [5] = test: as above; conditions: 72 h
[6] = system: normal primary NK cells, pool 3 (3 donors) (IL-2 2.5 ng/mL); test: as above; conditions: 72 h
YT (IL-2 2.5 ng/mL) [7] = test: as above; conditions: 72 h
NK-YS (IL-2 2.5 ng/mL) [8] = test: as above; conditions: 72 h
[9] = system: normal primary NK cells, pool 1 (3 donors) (IL-2 2.5 ng/mL); test: as above; conditions: 72 h
IMC-1 (IL-2 20 ng/mL) [10] = test: as above; conditions: 72 h
DERL-7 (IL-2 2.5 ng/mL) [11] = test: as above; conditions: 72 h
[12] = system: normal primary NK cells, pool 1 (3 donors), resting (IL-2 0 ng/mL); test: as above; conditions: 72 h
KHYG-1 (IL-2 2.5 ng/mL) [13] = test: as above; conditions: 72 h
KAI3 (IL-2 2.5 ng/mL) [14] = test: as above; conditions: 72 h
SNK-6 (IL-2 2.5 ng/mL) [15] = test: as above; conditions: 72 h
[16] = system: normal primary NK cells, pool 2 (3 donors) (IL-2 2.5 ng/mL); test: percent inhibition of viability; higher = more inhibition; conditions: 72 h
NKL (IL-2 2.5 ng/mL) [17] = test: as above; conditions: 72 h
NK-92 (IL-2 2.5 ng/mL) [18] = test: as above; conditions: 72 h
[19] = system: normal primary NK cells, pool 3 (3 donors) (IL-2 2.5 ng/mL); test: as above; conditions: 72 h
YT (IL-2 2.5 ng/mL) [20] = test: as above; conditions: 72 h
NK-YS (IL-2 2.5 ng/mL) [21] = test: as above; conditions: 72 h
[22] = system: normal primary NK cells, pool 1 (3 donors) (IL-2 2.5 ng/mL); test: as above; conditions: 72 h
IMC-1 (IL-2 20 ng/mL) [23] = test: as above; conditions: 72 h
DERL-7 (IL-2 2.5 ng/mL) [24] = test: as above; conditions: 72 h
[25] = system: normal primary NK cells, pool 1 (3 donors), resting (IL-2 0 ng/mL); test: as above; conditions: 72 h
KHYG-1 (IL-2 2.5 ng/mL) [26] = test: as above; conditions: 72 h
KAI3 (IL-2 2.5 ng/mL) [27] = test: as above; conditions: 72 h
SNK-6 (IL-2 2.5 ng/mL) [28] = test: as above; conditions: 72 h

O=C(/C=C/c1cccc(S(=O)(=O)Nc2ccccc2)c1)NO [Belinostat] (max concentration tested 10000 nM)
Conditions | drug sensitivity score
DERL-7 (IL-2 2.5 ng/mL) [11] | 21.6
IMC-1 (IL-2 20 ng/mL) [10] | 21.2
KAI3 (IL-2 2.5 ng/mL) [14] | 24.1
KHYG-1 (IL-2 2.5 ng/mL) [13] | 22.9
NK-92 (IL-2 2.5 ng/mL) [5] | 24.5
NK-YS (IL-2 2.5 ng/mL) [8] | 20.9
NKL (IL-2 2.5 ng/mL) [4] | 20.9
SNK-6 (IL-2 2.5 ng/mL) [15] | 21.7
YT (IL-2 2.5 ng/mL) [7] | 20.1
[1] | 20.8
[3] | 21.2
[6] | 20.1
[9] | 22.5
[12] | 22.9

percent inhibition of viability [%]
Conditions | 1 nM | 10 nM | 100 nM | 1000 nM | 10000 nM
DERL-7 (IL-2 2.5 ng/mL) [24] | -0.73 | 5.09 | 23.1 | 100 | 101
IMC-1 (IL-2 20 ng/mL) [23] | 2.36 | -0.13 | 20.2 | 99.6 | 101
KAI3 (IL-2 2.5 ng/mL) [27] | 7.26 | 14.3 | 51.9 | 94.6 | 109
KHYG-1 (IL-2 2.5 ng/mL) [26] | -0.75 | -0.46 | 35 | 108 | 110
NK-92 (IL-2 2.5 ng/mL) [18] | 5.07 | 14.1 | 52.2 | 107 | 106
NK-YS (IL-2 2.5 ng/mL) [21] | -1.97 | -1.76 | 21 | 97.5 | 109
NKL (IL-2 2.5 ng/mL) [17] | 5.5 | 10.4 | 37.5 | 87.9 | 108
SNK-6 (IL-2 2.5 ng/mL) [28] | -0.17 | -5.01 | 28.3 | 97.2 | 101
YT (IL-2 2.5 ng/mL) [20] | 4.17 | 3.96 | 11.8 | 105 | 109
[2] | 0.58 | 6.04 | 16.8 | 99.6 | 101
[16] | -8.09 | 0.56 | 31 | 93.9 | 95.6
[19] | -2.35 | -1.35 | 15.5 | 96.3 | 98.3
[22] | 3.19 | 9.82 | 43.7 | 96.4 | 98.7
[25] | -4.94 | 0.46 | 53.2 | 87.1 | 91.7

CC1(C)CNc2cc(NC(=O)c3cccnc3NCc3ccncc3)ccc21 [Motesanib] (max concentration tested 10000 nM)
Conditions | drug sensitivity score
DERL-7 (IL-2 2.5 ng/mL) [11] | 0
IMC-1 (IL-2 20 ng/mL) [10] | 0.85
KAI3 (IL-2 2.5 ng/mL) [14] | 1.11
KHYG-1 (IL-2 2.5 ng/mL) [13] | 0
NK-92 (IL-2 2.5 ng/mL) [5] | 3.26
NK-YS (IL-2 2.5 ng/mL) [8] | 0.73
NKL (IL-2 2.5 ng/mL) [4] | 3.62
SNK-6 (IL-2 2.5 ng/mL) [15] | 0
YT (IL-2 2.5 ng/mL) [7] | 0.65
[1] | 0.32
[3] | 0
[6] | 0
[9] | 0
[12] | 0

percent inhibition of viability [%]
Conditions | 1 nM | 10 nM | 100 nM | 1000 nM | 10000 nM
DERL-7 (IL-2 2.5 ng/mL) [24] | 8.61 | 2.19 | 10.7 | -4.45 | -7.84
IMC-1 (IL-2 20 ng/mL) [23] | -10.7 | -4.04 | -2.1 | 5 | 16.6
KAI3 (IL-2 2.5 ng/mL) [27] | -8.29 | -1.63 | -3.65 | 2.07 | 23.2
KHYG-1 (IL-2 2.5 ng/mL) [26] | -8.69 | -5.06 | -3.55 | 8.47 | 9.44
NK-92 (IL-2 2.5 ng/mL) [18] | 5.17 | 2.14 | 10.4 | 20.8 | 17.9
NK-YS (IL-2 2.5 ng/mL) [21] | -4.47 | -3.14 | -5.16 | 6.4 | 15
NKL (IL-2 2.5 ng/mL) [17] | -8.65 | -10.7 | -6.54 | 20 | 30.4
SNK-6 (IL-2 2.5 ng/mL) [28] | -15.2 | -22.6 | -22.4 | -32.4 | -29.5
YT (IL-2 2.5 ng/mL) [20] | -3.76 | -2.12 | -1.24 | 6.34 | 14.4
[2] | -5.87 | -5.96 | -6.1 | 8.26 | 11.9
[16] | -7.61 | 1.62 | 3.62 | 1.34 | 2.65
[19] | -2.89 | 5.36 | 3.67 | 3.63 | 9.45
[22] | -3.57 | 3.71 | 11 | 2.82 | -3.82
[25] | 4.22 | 16.2 | 15.4 | 16.6 | 11.9

Nc1nc(N)c2nc(-c3cccc(O)c3)c(-c3cccc(O)c3)nc2n1 [TG100-115] (max concentration tested 10000 nM)
Conditions | drug sensitivity score
DERL-7 (IL-2 2.5 ng/mL) [11] | 0
IMC-1 (IL-2 20 ng/mL) [10] | 2.97
KAI3 (IL-2 2.5 ng/mL) [14] | 0
KHYG-1 (IL-2 2.5 ng/mL) [13] | 1.47
NK-92 (IL-2 2.5 ng/mL) [5] | 0.35
NK-YS (IL-2 2.5 ng/mL) [8] | 0
NKL (IL-2 2.5 ng/mL) [4] | 2.07
SNK-6 (IL-2 2.5 ng/mL) [15] | 10.8
YT (IL-2 2.5 ng/mL) [7] | 0
[1] | 2.01
[3] | 1.02
[6] | 0.09
[9] | 0.36
[12] | 0.1

percent inhibition of viability [%]
Conditions | 1 nM | 10 nM | 100 nM | 1000 nM | 10000 nM
DERL-7 (IL-2 2.5 ng/mL) [24] | -6.88 | -4.08 | 5.03 | -4.31 | 3.35
IMC-1 (IL-2 20 ng/mL) [23] | -0.94 | 5.84 | 4.32 | 14.9 | 34.2
KAI3 (IL-2 2.5 ng/mL) [27] | -5.91 | 4.12 | -4.09 | -1.44 | 13.4
KHYG-1 (IL-2 2.5 ng/mL) [26] | 0.48 | 4.75 | 4.43 | 9.36 | 24.5
NK-92 (IL-2 2.5 ng/mL) [18] | -2.65 | 1.92 | 7.95 | 3.09 | 17.8
NK-YS (IL-2 2.5 ng/mL) [21] | -1.11 | -1.59 | 0.64 | 4.73 | 8.38
NKL (IL-2 2.5 ng/mL) [17] | -7.69 | -0.08 | 0.45 | 6.08 | 27.7
SNK-6 (IL-2 2.5 ng/mL) [28] | 0.36 | 13.3 | 17.1 | 53.8 | 39
YT (IL-2 2.5 ng/mL) [20] | 1.25 | 2.49 | 4.53 | 4.76 | 12.3
[2] | -2.77 | -3.08 | 0.07 | 6.14 | 26.9
[16] | -11.3 | -4.42 | 12.3 | 5.35 | 21.7
[19] | -6.73 | -4.4 | 7.77 | -1.79 | 13.7
[22] | 6.61 | -12.2 | -0.36 | -3.46 | 18.8
[25] | 0.41 | -21.8 | -6.01 | -19 | 16.1
